Active and inactive are the calls of the source. No cut-off for these calls is given here.
Columns and labels:
Type in all cases: functional, cell-based
Cortical neurone [1] = assay: Neuroplasticity effect in Wistar rat brain cortical neuron assessed as neurite outgrowth by measuring increase in neurite number at <=10 uM incubated for 72 hrs by DAPI staining based imaging analysis
Cortical neurone [2] = assay: Neuroplasticity effect in Wistar rat brain cortical neuron assessed as neurite outgrowth by measuring increase in neurite length at <=10 uM incubated for 72 hrs by DAPI staining based imaging analysis
Cortical neurone [3] = assay: Neuroplasticity effect in Wistar rat brain cortical neuron assessed as neurite outgrowth by measuring increase in neurite branching at <=10 uM incubated for 72 hrs by DAPI staining based imaging analysis

## CN1CCCc2oc3cccc(F)c3c2C1
Cortical neurone [1]
  Activity: Active
Cortical neurone [2]
  Activity: Active
Cortical neurone [3]
  Activity: Active

## FC(F)(F)CN1CCc2sc3ccccc3c2CC1
Cortical neurone [1]
  Activity: inactive
Cortical neurone [2]
  Activity: Active
Cortical neurone [3]
  Activity: Active

## Fc1ccc2c3c(oc2c1)CCCNC3
Cortical neurone [1]
  Activity: Active
Cortical neurone [2]
  Activity: Active
Cortical neurone [3]
  Activity: Active

## FC(F)(F)Oc1cccc2sc3c(c12)CCN(C1CCC1)CC3
Cortical neurone [1]
  Activity: Active
Cortical neurone [2]
  Activity: Active
Cortical neurone [3]
  Activity: Active

## COc1ccc2c3c(oc2c1)CCCN(CC(F)(F)F)C3
Cortical neurone [1]
  Activity: Active
Cortical neurone [2]
  Activity: Active
Cortical neurone [3]
  Activity: Active

## COc1cccc2oc3c(c12)CN(C1CCC1)CCC3
Cortical neurone [1]
  Activity: inactive
Cortical neurone [2]
  Activity: inactive
Cortical neurone [3]
  Activity: inactive

## COc1ccc2c3c(sc2c1)CCNCC3
Cortical neurone [1]
  Activity: Active
Cortical neurone [2]
  Activity: Active
Cortical neurone [3]
  Activity: Active

## Fc1cccc2oc3c(c12)CCN(C1CCC1)CC3
Cortical neurone [1]
  Activity: Active
Cortical neurone [2]
  Activity: Active
Cortical neurone [3]
  Activity: inactive

## COc1ccc2c3c(oc2c1)CCCN(C1CCC1)C3
Cortical neurone [1]
  Activity: Active
Cortical neurone [2]
  Activity: Active
Cortical neurone [3]
  Activity: Active

## COc1ccc2c3c(oc2c1)CCCN(C)C3
Cortical neurone [1]
  Activity: Active
Cortical neurone [2]
  Activity: Active
Cortical neurone [3]
  Activity: Active

## COc1cccc2oc3c(c12)CCNCC3
Cortical neurone [1]
  Activity: inactive
Cortical neurone [2]
  Activity: inactive
Cortical neurone [3]
  Activity: inactive

## COc1cccc2oc3c(c12)CCN(C1CCC1)CC3
Cortical neurone [1]
  Activity: Active
Cortical neurone [2]
  Activity: Active
Cortical neurone [3]
  Activity: Active

## CN1CCc2oc3cccc(F)c3c2CC1
Cortical neurone [1]
  Activity: inactive
Cortical neurone [2]
  Activity: Active
Cortical neurone [3]
  Activity: Active

## Fc1cccc2oc3c(c12)CN(CC(F)(F)F)CCC3
Cortical neurone [1]
  Activity: Active
Cortical neurone [2]
  Activity: Active
Cortical neurone [3]
  Activity: Active

## Fc1cccc2oc3c(c12)CN(C1CCC1)CCC3
Cortical neurone [1]
  Activity: Active
Cortical neurone [2]
  Activity: Active
Cortical neurone [3]
  Activity: Active
